Reference: ChEMBL document CHEMBL1201862, “PubChem BioAssay data set” (2004)
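96-well plates; 48 h exposure; 5 concentrations. Endpoints by linear interpolation between flanking doses. Not reached: highest tested concentration assigned. GI50: concentration for 50% inhibition of growth.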 Activity calls are given as the source filed them. No stated cut-off is given here; in the data, active = GI50 up to about 1.1 µM and inactive = higher.

Legend:
Assay in all cases: DTP human tumour cell line panel, 48 h
[1] = test system: 786-0
[2] = test system: ACHN
[3] = test system: DU-145
[4] = test system: HCT-15
[5] = test system: HOP-62
[6] = test system: HOP-92
[7] = test system: Hs-578T
[8] = test system: MOLT-4
[9] = test system: NCI-H23
[10] = test system: NCI-H522
[11] = test system: NCI/ADR-RES
[12] = test system: SN12C
[13] = test system: T47D
[14] = test system: TK-10
[15] = test system: UO-31
[16] = test system: K562
[17] = test system: MDA-MB-231

## CN(C)c1ccc(NN=C2SC(=N\c3ccccc3)/C(=N/c3ccccc3)S2)cc1
[1]
  GI50: > 100 µM (inactive)
[2]
  GI50: > 100 µM (inactive)
[3]
  GI50: > 100 µM (inactive)
[4]
  GI50: 9.31 µM
[5]
  GI50: > 100 µM (inactive)
[6]
  GI50: 22.8 µM (inactive)
[7]
  GI50: 57.4 µM (inactive)
[8]
  GI50: 47.2 µM (inactive)
[9]
  GI50: 12.1 µM (inactive)
[10]
  GI50: 6.03 µM (inactive)
[11]
  GI50: 67.8 µM (inactive)
[12]
  GI50: 43.4 µM (inactive)
[13]
  GI50: 12.3 µM (inactive)
[14]
  GI50: > 100 µM (inactive)
[15]
  GI50: 52.4 µM (inactive)

## N#CC12CNCC1CN=N2 (centres undefined)
[1]
  GI50: > 100 µM (inactive)
[2]
  GI50: > 100 µM (inactive)
[3]
  GI50: > 100 µM (inactive)
[4]
  GI50: > 100 µM
[5]
  GI50: > 100 µM (inactive)
[6]
  GI50: > 100 µM (inactive)
[16]
  GI50: > 100 µM (inactive)
[17]
  GI50: > 100 µM (inactive)
[8]
  GI50: > 100 µM (inactive)
[9]
  GI50: > 100 µM (inactive)
[10]
  GI50: > 100 µM (inactive)
[11]
  GI50: > 100 µM (inactive)
[12]
  GI50: > 100 µM (inactive)
[13]
  GI50: > 100 µM (inactive)
[14]
  GI50: > 100 µM (inactive)
[15]
  GI50: > 100 µM (inactive)

## O=C1OC2C(O)C(=O)OC2C1O (centres undefined)
[1]
  GI50: > 100 µM (inactive)
[2]
  GI50: > 100 µM (inactive)
[3]
  GI50: > 100 µM (inactive)
[4]
  GI50: > 100 µM
[5]
  GI50: > 100 µM (inactive)
[6]
  GI50: > 100 µM (inactive)
[16]
  GI50: > 100 µM (inactive)
[17]
  GI50: > 100 µM (inactive)
[8]
  GI50: > 100 µM (inactive)
[9]
  GI50: > 100 µM (inactive)
[10]
  GI50: > 100 µM (inactive)
[11]
  GI50: > 100 µM (inactive)
[12]
  GI50: > 100 µM (inactive)
[13]
  GI50: > 100 µM (inactive)
[15]
  GI50: > 100 µM (inactive)

## COc1ccc(C[C@@H]2CN(C(=O)c3ccccc3)[C@H](Cc3ccc(O)cc3)CN2C(=O)c2ccccc2)cc1Br
[1]
  GI50: > 100 µM (inactive)
[2]
  GI50: > 100 µM (inactive)
[3]
  GI50: > 100 µM (inactive)
[4]
  GI50: > 100 µM
[5]
  GI50: > 100 µM (inactive)
[6]
  GI50: > 100 µM (inactive)
[7]
  GI50: > 100 µM (inactive)
[16]
  GI50: > 100 µM (inactive)
[8]
  GI50: > 100 µM (inactive)
[9]
  GI50: > 100 µM (inactive)
[11]
  GI50: > 100 µM (inactive)
[12]
  GI50: > 100 µM (inactive)
[13]
  GI50: > 100 µM (inactive)
[14]
  GI50: > 100 µM (inactive)
[15]
  GI50: > 100 µM (inactive)

## COc1ccc(C/C=C(\C)CCO)cc1
[1]
  GI50: > 100 µM (inactive)
[2]
  GI50: > 100 µM (inactive)
[3]
  GI50: > 100 µM (inactive)
[4]
  GI50: > 100 µM
[5]
  GI50: > 100 µM (inactive)
[6]
  GI50: > 100 µM (inactive)
[7]
  GI50: > 100 µM (inactive)
[16]
  GI50: > 100 µM (inactive)
[17]
  GI50: > 100 µM (inactive)
[8]
  GI50: > 100 µM (inactive)
[9]
  GI50: > 100 µM (inactive)
[10]
  GI50: > 100 µM (inactive)
[11]
  GI50: > 100 µM (inactive)
[12]
  GI50: > 100 µM (inactive)
[14]
  GI50: > 100 µM (inactive)
[15]
  GI50: > 100 µM (inactive)

## CC1=CC(c2ccccc2)OP1(=O)c1ccccc1 (centres undefined)
[1]
  GI50: > 100 µM (inactive)
[2]
  GI50: > 100 µM (inactive)
[3]
  GI50: > 100 µM (inactive)
[4]
  GI50: > 100 µM
[5]
  GI50: > 100 µM (inactive)
[6]
  GI50: > 100 µM (inactive)
[7]
  GI50: > 100 µM (inactive)
[16]
  GI50: > 100 µM (inactive)
[9]
  GI50: > 100 µM (inactive)
[10]
  GI50: > 100 µM (inactive)
[11]
  GI50: > 100 µM (inactive)
[12]
  GI50: > 100 µM (inactive)
[13]
  GI50: > 100 µM (inactive)
[14]
  GI50: > 100 µM (inactive)

## Cc1cc(C)nc(NS(=O)(=O)c2ccc(Nc3nncc(=O)n3N)cc2)n1
[1]
  GI50: 15.8 µM (inactive)
[2]
  GI50: 33.7 µM (inactive)
[3]
  GI50: 34.3 µM (inactive)
[4]
  GI50: 14.5 µM
[5]
  GI50: 18.7 µM (inactive)
[7]
  GI50: 29.6 µM (inactive)
[16]
  GI50: 11.1 µM (inactive)
[8]
  GI50: 15.5 µM (inactive)
[9]
  GI50: 14.4 µM (inactive)
[10]
  GI50: 12.8 µM (inactive)
[11]
  GI50: 23.6 µM (inactive)
[13]
  GI50: 16.3 µM (inactive)
[15]
  GI50: 19.3 µM (inactive)

## O=c1[nH]c2ccc(C(F)(F)F)cc2nc1C(F)(F)F
[1]
  GI50: 35.2 µM (inactive)
[2]
  GI50: 30.9 µM (inactive)
[3]
  GI50: 23.2 µM (inactive)
[4]
  GI50: 27.9 µM
[5]
  GI50: 18.3 µM (inactive)
[6]
  GI50: 9.4 µM (inactive)
[16]
  GI50: 35.7 µM (inactive)
[17]
  GI50: 28.3 µM (inactive)
[8]
  GI50: 23.4 µM (inactive)
[9]
  GI50: 18.1 µM (inactive)
[10]
  GI50: 17.5 µM (inactive)
[11]
  GI50: 28.1 µM (inactive)
[12]
  GI50: 29.4 µM (inactive)
[13]
  GI50: 13.2 µM (inactive)
[14]
  GI50: 27.9 µM (inactive)
[15]
  GI50: 20.7 µM (inactive)

## C(=N\C12CC3CC(CC(C3)C1)C2)/C1CCCCC1
[1]
  GI50: > 100 µM (inactive)
[2]
  GI50: > 100 µM (inactive)
[3]
  GI50: > 100 µM (inactive)
[4]
  GI50: > 100 µM
[5]
  GI50: > 100 µM (inactive)
[6]
  GI50: > 100 µM (inactive)
[7]
  GI50: > 100 µM (inactive)
[16]
  GI50: > 100 µM (inactive)
[17]
  GI50: > 100 µM (inactive)
[8]
  GI50: > 100 µM (inactive)
[9]
  GI50: > 100 µM (inactive)
[10]
  GI50: > 100 µM (inactive)
[11]
  GI50: > 100 µM (inactive)
[12]
  GI50: > 100 µM (inactive)
[14]
  GI50: > 100 µM (inactive)
[15]
  GI50: > 100 µM (inactive)

## O=C1CC[C@@]2(O)[C@H]3Cc4ccc(-c5ccccc5)c5c4[C@@]2(CCN3CC2CC2)[C@H]1O5
[1]
  GI50: 15.8 µM (inactive)
[2]
  GI50: 20.6 µM (inactive)
[3]
  GI50: 23.3 µM (inactive)
[4]
  GI50: 16.8 µM
[5]
  GI50: 22.4 µM (inactive)
[6]
  GI50: 16.2 µM (inactive)
[16]
  GI50: 24.3 µM (inactive)
[17]
  GI50: 15.2 µM (inactive)
[8]
  GI50: 18.6 µM (inactive)
[9]
  GI50: 24.1 µM (inactive)
[10]
  GI50: 14.7 µM (inactive)
[11]
  GI50: 16.3 µM (inactive)
[12]
  GI50: 24.2 µM (inactive)
[13]
  GI50: 17 µM (inactive)
[14]
  GI50: 17.6 µM (inactive)
[15]
  GI50: 16.1 µM (inactive)

## O=C1/C(=C/c2cccc([N+](=O)[O-])c2)Sc2scc(-c3ccc([N+](=O)[O-])cc3)[n+]21
[1]
  GI50: 16.4 µM (inactive)
[2]
  GI50: 19.8 µM (inactive)
[3]
  GI50: 35.2 µM (inactive)
[4]
  GI50: 14.5 µM
[5]
  GI50: 16.6 µM (inactive)
[6]
  GI50: 24.5 µM (inactive)
[17]
  GI50: 21.9 µM (inactive)
[8]
  GI50: 21.1 µM (inactive)
[9]
  GI50: 15.2 µM (inactive)
[11]
  GI50: 19 µM (inactive)
[12]
  GI50: 18.3 µM (inactive)
[13]
  GI50: 44.9 µM (inactive)
[15]
  GI50: 11.3 µM (inactive)

## CC(C)(C)[Si](C)(C)OCC1OC(n2ccc(=O)[nH]c2=O)C(O[Si](C)(C)C(C)(C)C)[C@@]12O[C@H]2C(N)=O (some centres undefined)
[1]
  GI50: 5.11 µM (inactive)
[2]
  GI50: 6.05 µM (inactive)
[3]
  GI50: 4.03 µM (inactive)
[4]
  GI50: 5.38 µM
[5]
  GI50: 13.8 µM (inactive)
[6]
  GI50: > 10 µM (inactive)
[16]
  GI50: 7.38 µM (inactive)
[17]
  GI50: 4.61 µM (inactive)
[8]
  GI50: 6.53 µM (inactive)
[9]
  GI50: 12.2 µM (inactive)
[10]
  GI50: 2.22 µM (inactive)
[11]
  GI50: 8.57 µM (inactive)
[12]
  GI50: 13 µM (inactive)
[14]
  GI50: 20.2 µM (inactive)
[15]
  GI50: 7.36 µM (inactive)

## O=C(O)Cc1ccc(Nc2nc3cc(C(F)(F)F)ccc3nc2C(=O)O)cc1
[1]
  GI50: > 100 µM (inactive)
[2]
  GI50: > 100 µM (inactive)
[3]
  GI50: > 100 µM (inactive)
[4]
  GI50: > 100 µM
[5]
  GI50: > 100 µM (inactive)
[6]
  GI50: > 100 µM (inactive)
[7]
  GI50: > 100 µM (inactive)
[8]
  GI50: > 100 µM (inactive)
[9]
  GI50: > 100 µM (inactive)
[10]
  GI50: > 100 µM (inactive)
[11]
  GI50: > 100 µM (inactive)
[12]
  GI50: > 100 µM (inactive)
[13]
  GI50: > 100 µM (inactive)
[14]
  GI50: > 100 µM (inactive)
[15]
  GI50: > 100 µM (inactive)

## CCSc1nc(-c2cccs2)nc2ccc(I)cc12
[1]
  GI50: > 100 µM (inactive)
[2]
  GI50: > 100 µM (inactive)
[3]
  GI50: > 100 µM (inactive)
[4]
  GI50: 89.9 µM
[5]
  GI50: > 100 µM (inactive)
[16]
  GI50: > 100 µM (inactive)
[8]
  GI50: > 100 µM (inactive)
[9]
  GI50: > 100 µM (inactive)
[10]
  GI50: > 100 µM (inactive)
[11]
  GI50: > 100 µM (inactive)
[12]
  GI50: > 100 µM (inactive)
[13]
  GI50: 1.5 µM (inactive)
[14]
  GI50: 39.6 µM (inactive)
[15]
  GI50: > 100 µM (inactive)
